In US8765729B2, “Cancer therapy” (Aeolus Sciences, Inc., priority 2001, dated 2014):

Key:
[1] = system: R3230 AC mammary adenocarcinoma; experiment: R3230 AC mammary adenocarcinoma growth and radiation response in Fischer 344 rats; type: in vivo; conditions: for tumor growth as compared to control (Day 20 Tumor Ratio, Days for 5-fold tumor growth): 6 mg/kg/day IP Day 1 to 20, FIG. 2C
Description: (§1) FIGS. 2A-2C. (FIG. 2A) B16 melanoma tumor treated with SOD mimetic. The mimetic was 10113 at a dose of 6 mg/kg given intraperitoneally qd for 5 days. (FIG. 2B) Mammary adenocarcinoma treated with SOD mimetic. 10113 was given intraperitoneally at a dose of 6 mg/kg/day for 16 days. Radiation therapy (RT), 21 Gy, was given on day 8 or 9. (FIG. 2C) Fischer 344 rats with subcutaneously implanted R3230 AC mammary adenocarcinomas received Radiation treatment (21 Gy Day 1), AEOL 10113 (6 mg/kg/day IP Day 1 to 20), the combination Radiation and AEOL 10113 (as above), or Control treatment.
(§2) The effect of the MnTE-2-PyP (manganese(III) tetrakis(N-ethylpyridinium-2-yl)porphyrin) on tumor growth and radiation response in two tumor models has been tested. […] The effect of the SOD mimetic. MnTE-2-PyP, on tumor growth and radiation response has been tested in a rat model.
[…] AC mammary adenocarcinoma was transplanted on the right hind leg. When the tumors reached 0.8-1 cm in diameter, the rats were randomized into 4 groups to receive 1) Saline (control); 2) Drug 10150; 3) Drug 10113; 4) Drug 10201. Drugs were given daily in dose of […] i.p. The tumor size was measured twice a week. (FIG. 3).

[2] = system: radiation-induced lung injury; experiment: Radiation-induced lung injury in rats (28 Gy right hemithoracic irradiation); type: in vivo
Description: AEOL 10113 was tested (6 mg/kg/day for 5 days beginning on the day of irradiation) in a rat model of radiation-induced lung injury as assessed by breathing rate (animals with lung injury have a more rapid respiration rate), and chemical and microscopic measures of fibrosis. During the follow-up period of 6 months, 4 of the 9 rats receiving radiation only developed severe respiratory distress and were euthanized. In the group of rats treated with radiation plus AEOL 10113, only 1 of the 9 rats developed respiratory distress and was euthanized. Breathing rate data were analyzed on a last observation carried forward (LOCF) data set, in which the last observation for rats euthanized due to respiratory distress was imputed to subsequent weeks. There was a significant (log ranks p=0.0011) delay (approximately 3.4 weeks) in the development of radiation-induced lung injury (assessed by an increase in breathing rate) in animals treated with AEOL 10113 (FIG. 12).
Six months after radiation all remaining animals were euthanized. At that time, the right upper lung lobe was removed and processed to quantify the extent of lung fibrosis based on hydroxyproline content.
Radiation-induced lung fibrosis was also assessed using histopathology (FIG. 13B). Lungs were fixed in 10% neutral buffered formalin. Five-micron thick sections were stained with hematoxylin and eosin or Masson trichrome and examined microscopically. Slides were systematically scanned in a microscope using a ×10 objective. Each successive field was individually assessed for severity of interstitial fibrosis and allotted a score of between 0 and 8.
Studies were performed to evaluate changes in body weight after irradiation and to assess the radioprotective effect of MnTE-2-PyP on radiation-induced pulmonary injury in rats. The body weight and lung function of the animals were measured every two weeks after irradiation in three groups of animals: control, radiation alone and radiation+MnTE-2-PyP. A single dose of 28 Gy was delivered to right hemithorax and 6 mg/kg of MnTE-2-PyP was given daily i.p. for 5 days after irradiation. Unrestrained rats were placed in a 1500 ml whole body plethysmograph tube connected to a pressure transducer for a breathing rate measurements. […] The mean of five measurements was performed on each animal.

[3] = SOD activity (cytochrome C method); type: biochemical
From the text: FIGS. 1A-1H show the structures of certain generic and specific definitions of compounds suitable for use in the present invention. With reference to FIG. 1C, mimetics of the invention can be of Formula I or Formula II, or dimeric forms thereof, an example of a dimeric form being shown in FIG. 1D. With reference to FIG. 1H, the SOD activities of certain of the depicted compounds are shown in Table 1 (as measured by the cytochrome C method): […]

[4] = system: B16 melanoma tumor; experiment: B16 melanoma tumor growth in mice treated with SOD mimetic; type: in vivo; conditions: 6 mg/kg i.p.
Description: as §1, §2

CC[n+]1ccccc1-c1c2nc(c(-c3cccc[n+]3CC)c3ccc([n-]3)c(-c3cccc[n+]3CC)c3nc(c(-c4cccc[n+]4CC)c4ccc1[n-]4)C=C3)C=C2.[Mn+3] [Compound 10113, manganese(III)tetrakis(N-ethylpyridinium-2-yl)porphyrin]
tumor growth as compared to control (Day 20 Tumor Ratio, Days for 5-fold tumor growth) ([1]; listed as AEL 10113): limited tumor growth | tumor growth as compared to control (Day 20 Tumor Ratio, Days for 5-fold tumor growth) ([1]; listed as AEOL 10113): significantly (p<0.05) inhibited tumor growth | post-radiation tumor regrowth ([1]; radiation 21 Gy plus mimetic): significant inhibition of the post-radiation tumor regrowth | effect on tumor response to radiation ([1]; radiation 21 Gy plus mimetic, listed as AEL 10113): did not diminish the effect of radiation on tumor growth | effect on tumor response to radiation ([1]; radiation 21 Gy plus mimetic, listed as MnTE-2-PyP): does not protect tumor from irradiation | inhibition of tumor growth ([1]; rat model, SOD mimetic alone): > 50% | delay in the development of radiation-induced lung injury (increase in breathing rate) ([2]; 6 mg/kg/day for 5 days, LOCF, log ranks p=0.0011): approximately 3.4 weeks | reduction of the magnitude of the increase in breathing rate at endpoint ([2]; 6 mg/kg/day for 5 days, average): 34% | hydroxyproline content of upper right lobe after radiation ([2]; 6 months after 28 Gy, wet and dry lung): significant reduction (p<0.05) | recovery of body weight loss after hemithoracic irradiation ([2]; 28 Gy, 6 mg/kg daily i.p. for 5 days): significantly better recovery of the body weight loss | hydroxyproline content of right upper lobe vs control ([2]; AEOL 10113 without radiation): no differences | radiation-induced lung fibrosis by histopathology ([2]; fibrosis score 0-8, FIG. 13B): reduced radiation-induced lung fibrosis | rats that developed respiratory distress and were euthanized ([2]; of 9 rats, radiation plus AEOL 10113, 6 months, radiation only 4 of 9): 1 | SOD activity [3]: 10,648 U/mg | inhibition of tumor growth ([4]; mice with B16 melanoma): significant inhibition of tumor growth | Tumor doubling time ([4]; control group 2 days): 4 days
